Earlier results in patent US11890293B2, “Synthetic composition for treating metabolic disorders” (GLYCOM A/S, priority 2014, dated 2024).

How the values were obtained:
[1] = system: type 2 diabetes-model mice; settings: oral doses

| Structure (SMILES) | insulin secretion [1] | fat accumulation in the liver and other organs (high-fat diet mice) | fat accumulation in the liver and other organs (high-fat diet rats) |
| --- | --- | --- | --- |
| CC(=O)N[C@H]1[C@H]([C@H](O)[C@H](O)CO)O[C@@](O[C@H]2[C@@H](O)[C@@H](CO)O[C@@H](O[C@H]3[C@H](O)[C@@H](O)C(O)O[C@@H]3CO)[C@@H]2O)(C(=O)O)C[C@@H]1O (stereo partly shown) [3′-SL, 3′-sialyllactose] | promote insulin secretion | reduce/prevent fat accumulation in the liver and other organs | reduce/prevent fat accumulation in the liver and other organs |
| CC(=O)N[C@H]1[C@H]([C@H](O)[C@H](O)CO)O[C@@](OC[C@H]2O[C@@H](O[C@H]3[C@H](O)[C@@H](O)[C@H](O)O[C@@H]3CO)[C@H](O)[C@@H](O)[C@H]2O)(C(=O)O)C[C@@H]1O [6′-SL, 6′-sialyllactose] | promote insulin secretion | reduce/prevent fat accumulation in the liver and other organs | reduce/prevent fat accumulation in the liver and other organs |
| CC(=O)N[C@H]1[C@H](O[C@H]2[C@@H](O)[C@@H](CO)O[C@@H](O[C@H]3[C@H](O)[C@@H](O)C(O)O[C@@H]3CO)[C@@H]2O)O[C@H](CO)[C@@H](O[C@@H]2O[C@H](CO)[C@H](O)[C@H](O)[C@H]2O)[C@@H]1O (mixture of isomers) [LNnT, lacto-N-neotetraose] | promote insulin secretion | – | – |
